In patent US20120214862A1, “MODULATION OF FACTOR 7 EXPRESSION” (ISIS Pharmaceuticals, Inc., priority 2009, published 2012):
In the oligonucleotide strings, read from the 5' end, every base follows the letter of its sugar. An asterisk marks phosphorothioate; unmarked linkages are phosphodiester. Other units and linkages are bracketed, terminal groups are in braces. A string of capitals states the bases alone. e = 2'-O-(2-methoxyethyl) (MOE); [5mC] = 5-methylcytosine; d = 2'-deoxy (DNA)

Tested on: human Factor 7 mRNA
Test: Inhibition of human Factor 7 mRNA by 2-10-2 MOE shortmers in HepB3 cells, electroporation, 1,000 nM
Format: cell-based
Conditions: electroporation, 1,000 nM oligonucleotide, approximately 24 hours, relative to untreated control cells
From the text: Short antisense oligonucleotides (shortmers) were designed to target a Factor 7 nucleic acid. The shortmers in Table 17 were designed as 2-10-2 MOE gapmers. The gapmers are 14 nucleotides in length, wherein the central gap segment is comprised of 10 2′-deoxynucleotides and is flanked on both sides (in the 5′ and 3′ directions) by wings comprising 2 nucleotides each. Each nucleotide in the 5′ wing segment and each nucleotide in the 3′ wing segment has a 2′-MOE modification. The internucleoside linkages throughout each gapmer are phosphorothioate (P═S) linkages. All cytidine residues throughout each gapmer are 5-methylcytidines.
Shortmers were evaluated for their ability to reduce human Factor 7 mRNA in HepB3 cells and compared with one 5-10-5 chimeric oligonucleotide from Table 16, ISIS 407939. HepB3 cells at a density of 20,000 cells per well in a 96-well plate were transfected using electroporation with 1,000 nM of antisense oligonucleotide. After a treatment period of approximately 24 hours, RNA was isolated from the cells and Factor 7 mRNA levels were measured by real-time RT-PCR, as described herein. Factor 7 mRNA levels were adjusted according to total RNA content as measured by RIBOGREEN®. Results are presented in Table 17 as percent inhibition of Factor 7 mRNA, relative to untreated control cells. ISIS 407939 is the first oligonucleotide in […] to which the shortmers were compared, and is marked by an asterisk (*).

435759 (antisense eG*eA*dG*d[5mC]*d[5mC]*dA*d[5mC]*dA*dG*dA*dG*d[5mC]*e[5mC]*eT) [compound 435759]
% inhibition of human Factor 7 mRNA: 11%

435720 (antisense eA*eG*dG*d[5mC]*dT*d[5mC]*dA*dG*d[5mC]*dT*dG*dG*eG*e[5mC]) [compound 435720]
% inhibition of human Factor 7 mRNA: 16%

435683 (antisense eA*eT*dG*dT*d[5mC]*dG*dT*dG*dG*dT*dT*dG*eG*eT) [compound 435683]
% inhibition of human Factor 7 mRNA: 3%

435739 (antisense e[5mC]*eA*dT*d[5mC]*dT*d[5mC]*dA*dG*dA*dG*dG*dA*eT*eG) [compound 435739]
% inhibition of human Factor 7 mRNA: 5%

435484 (antisense e[5mC]*e[5mC]*dT*dG*dG*dG*dT*d[5mC]*dA*dT*d[5mC]*dA*eG*e[5mC]) [compound 435484]
% inhibition of human Factor 7 mRNA: 45%

435638 (antisense eA*eG*d[5mC]*d[5mC]*d[5mC]*dT*dG*dA*dA*dG*d[5mC]*d[5mC]*e[5mC]*eA) [compound 435638]
% inhibition of human Factor 7 mRNA: 55%

435726 (antisense eG*e[5mC]*dA*dA*dT*dG*dA*dA*dG*dG*d[5mC]*dA*eG*eA) [compound 435726]
% inhibition of human Factor 7 mRNA: 26%

435495 (antisense eG*eA*dG*dA*d[5mC]*d[5mC]*d[5mC]*dT*dG*dG*dT*dG*eT*eA) [compound 435495]
% inhibition of human Factor 7 mRNA: 27%

435646 (antisense eT*eA*dG*dG*dA*d[5mC]*dT*dG*dG*dA*dG*d[5mC]*eT*eG) [compound 435646]
% inhibition of human Factor 7 mRNA: 13%

435492 (antisense eA*e[5mC]*d[5mC]*d[5mC]*dT*dG*dG*dT*dG*dT*dA*d[5mC]*eA*e[5mC]) [compound 435492]
% inhibition of human Factor 7 mRNA: 45%

435789 (antisense e[5mC]*eA*dT*dG*dT*dT*dA*dG*d[5mC]*d[5mC]*dT*dT*eT*eG) [compound 435789]
% inhibition of human Factor 7 mRNA: 3%

435821 (antisense eA*eG*dT*d[5mC]*dA*dG*dT*dA*d[5mC]*dA*dG*dA*e[5mC]*eA) [compound 435821]
% inhibition of human Factor 7 mRNA: 0%

435695 (antisense eG*eA*d[5mC]*dT*dG*d[5mC]*dT*dG*d[5mC]*dA*dG*dG*e[5mC]*eA) [compound 435695]
% inhibition of human Factor 7 mRNA: 48%

435756 (antisense eT*eG*d[5mC]*d[5mC]*d[5mC]*dA*dG*dG*dA*d[5mC]*dG*dG*e[5mC]*e[5mC]) [compound 435756]
% inhibition of human Factor 7 mRNA: 20%

435698 (antisense e[5mC]*e[5mC]*dT*dT*dG*d[5mC]*dA*dG*dG*dA*dG*dT*e[5mC]*e[5mC]) [compound 435698]
% inhibition of human Factor 7 mRNA: 61%
